System: HIV LTR
Test: Chromatin immunoprecipitation (ChIP) at the HIV LTR in J-Lat cells
Format: cell-based, HIV-1
Method: J-Lat A2 and A72 cells were treated with TNFα (10 ng/ml) for 18 h. Cells were fixed with 1% formaldehyde (v/v) in fixation buffer (1 mM EDTA, 0.5 mM EGTA, 50 mM Hepes, pH 8.0, 100 mM NaCl), and fixation was stopped after 10 min by addition of glycine to 125 mM. The cell membrane was lysed for 15 min on ice (5 mM Pipes, pH 8.0, 85 mM KCl, 0.5% NP40, protease inhibitors). After washing with nuclear swell buffer (25 mM HEPES, pH 7.5, 4 mM KCl, 1 Mm DTT, 0.5% NP-40, 0.5 mM PMSF) and micrococcal nuclease (MNase) digestion buffer (20 mM Tris pH 7.5, 2.5 mM CaCl2), 5 mM NaCl, 1 mM DTT, 0.5% NP-40), the pellet was resuspended in MNase buffer (15 mM Tris-HCl, pH 7.5, 5 mM MgCl2, 1 mM CaCl2), and 25 mM NaCl). Subsequently, samples were incubated with MNase (New England Biolabs) for 10 min at RT. The reaction was quenched with 0.5 M EDTA and incubated on ice for 5 min. Cells were lysed (1% SDS, 10 mM EDTA, 50 mM Tris-HCl, pH 8.1, protease inhibitors), and chromatin DNA was sheared to 200-1000-bp average size through sonication (Ultrasonic Processor CP-130, Cole Parmer). Cellular debris was pelleted, and the supernatant was recovered. Protein A/G Sepharose beads were blocked with single-stranded salmon sperm DNA and BSA, washed and resuspended in immunoprecipitation buffer. Blocked protein A/G Sepharose beads were added to the digested chromatin fractions and rotated at 4° C. for 2 h to preclear chromatin. Lysates were incubated overnight at 4° C. with 5 μg of FOXO1, RelA, histone H4, H4K20me1, H4K20me2, H4K20me3 antibodies, or IgG control. After incubation with protein A/G agarose beads for 2 h and washing three times with low salt buffer (0.1% SDS, 1% Triton X-100, 2 mM EDTA, 20 mM Tris-HCl, pH 8.1, 150 mM NaCl), one time with high salt buffer (0.1% SDS, 1% Triton X-100, 2 mM EDTA, 20 mM Tris-HCl, pH 8.1, 500 mM NaCl) and twice with TE-buffer (1 mM EDTA, 10 mM Tris-HCl, pH 8.1), chromatin was eluted and recovered with Agencourt AMPure XP beads (Beckman Coulter). Bound chromatin and input DNA were treated with RNase H (New England Biolabs) and Proteinase K (Sigma-Aldrich) at 37° C. for 30 min. Immunoprecipitated chromatin was quantified by real-time PCR using the Maxima SYBR Green qPCR Master Mix (Thermo Scientific) and the ABI 7700 Sequence Detection System (Applied Biosystems). The SDS 2.4 software (Applied Biosystems) was used for analysis. The specificity of each PCR reaction was confirmed by melting curve analysis using the Dissociation Curve software (Applied Biosystems). All chromatin immunoprecipitations and qPCRs were repeated at least three times, and representative results were shown.
Because ATF4 can be recruited to the HIV LTR (Jiang, G. et al. Downloaded from. MBio 8, 1518-1534 (2018)) and the related human T-cell leukemia virus type 1 (HTLV-1) Reddy, T. et al. Oncogene 14, 2785-2792 (1997)), chromatin immunoprecipitation (ChIP) experiments were performed to test whether ATF4 binds the HIV LTR in response to FOXO1 inhibition. While low levels of ATF4 bound HIV LTR chromatin in untreated J-Lat cells, its recruitment was 3-fold enriched after AS1842856 treatment (FIG. 9, Panel A). […] The nuclear factor of activated T cells (NFAT) can occupy the NF-κB binding sites in the HIV LTR, and is activated through calcium mobilization after T cell activation rather than protein kinase C activation as for NF-κB. […]

SMILES: CCn1cc(C(=O)O)c(=O)c2c(N)c(F)c(NC3CCCCC3)cc21 [AS1842856, 5-amino-7-(cyclohexylamino)-1-ethyl-6-fluoro-4-oxo-1,4-dihydro-quinoline-3-carboxylic acid]
- NFAT at the HIV LTR: markedly enriched
- RNA polymerase II recruitment to the HIV promoter: marked increase
- RelA recruitment to the HIV LTR: not recruited
- ATF4 recruitment to HIV LTR chromatin (1000 nM vs untreated): 3 fold

Source: US20220193209A1, “COMPOSITIONS AND METHODS FOR REACTIVATING LATENT IMMUNODEFICIENCY VIRUS AND/OR TREATING IMMUNODEFICIENCY VIRUS INFECTION” (The J. David Gladstone institutes, a testamentary trust …, priority 2019, published 2022)
